{"source": "paper PMC6128263", "about": "(Biochemistry, 2018)", "key": {"Mtb Rv3802 [1]": {"biological_target": "T1, Mtb Rv3802 (Mycobacterium tuberculosis, UniProt O53581)", "T1 sequence (O53581 whole entry)": "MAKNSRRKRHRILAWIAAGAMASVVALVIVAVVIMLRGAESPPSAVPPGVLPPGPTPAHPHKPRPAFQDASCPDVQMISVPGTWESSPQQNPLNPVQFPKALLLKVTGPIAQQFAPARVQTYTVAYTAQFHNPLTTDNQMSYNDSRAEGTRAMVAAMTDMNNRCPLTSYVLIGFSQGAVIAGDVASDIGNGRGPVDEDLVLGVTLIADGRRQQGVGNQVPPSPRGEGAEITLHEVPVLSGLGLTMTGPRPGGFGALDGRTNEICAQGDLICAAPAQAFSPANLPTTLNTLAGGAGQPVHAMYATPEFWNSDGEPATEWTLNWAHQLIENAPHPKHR", "assay_type": "biochemical", "settings": "100 μM inhibitor, no preincubation time"}, "Mtb Rv3802 [2]": {"biological_target": "T1, Mtb Rv3802", "assay": "biochemical", "assay_type": "biochemical"}, "Mtb Pks13-TE [3]": {"biological_target": "T2, Mtb Pks13-TE (Mycobacterium tuberculosis, UniProt I6X8D2)", "T2 sequence (I6X8D2 1451-1733 limits assumed)": "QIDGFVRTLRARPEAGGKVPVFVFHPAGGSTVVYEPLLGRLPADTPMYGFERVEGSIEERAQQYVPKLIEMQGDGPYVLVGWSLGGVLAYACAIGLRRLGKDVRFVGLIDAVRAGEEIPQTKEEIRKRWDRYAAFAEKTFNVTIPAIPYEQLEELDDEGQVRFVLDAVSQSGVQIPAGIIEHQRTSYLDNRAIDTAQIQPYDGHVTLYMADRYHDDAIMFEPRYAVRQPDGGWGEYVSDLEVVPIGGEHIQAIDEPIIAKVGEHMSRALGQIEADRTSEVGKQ", "assay": "Initial inhibition screen, Pks13-TE activity assay", "assay_type": "biochemical"}, "Mtb Ag85C [4]": {"biological_target": "T3, Mtb Ag85C (Mycobacterium tuberculosis, UniProt P9WQN9)", "T3 sequence (P9WQN9 46-340)": "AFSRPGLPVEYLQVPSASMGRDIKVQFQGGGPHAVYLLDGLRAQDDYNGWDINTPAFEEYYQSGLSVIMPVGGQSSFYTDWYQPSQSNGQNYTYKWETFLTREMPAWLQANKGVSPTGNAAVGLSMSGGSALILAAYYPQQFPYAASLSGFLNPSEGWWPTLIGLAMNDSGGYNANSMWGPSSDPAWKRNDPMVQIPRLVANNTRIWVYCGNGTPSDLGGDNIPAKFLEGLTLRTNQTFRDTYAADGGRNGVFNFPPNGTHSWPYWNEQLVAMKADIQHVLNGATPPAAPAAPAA", "assay": "Ag85C kinact/KI determination", "assay_type": "biochemical"}, "Mtb Ag85C [5]": {"biological_target": "T3, Mtb Ag85C", "assay": "Initial inhibition screen, Ag85C activity assay", "assay_type": "biochemical", "settings": "for inhibition level of Ag85C: 100 μM inhibitor, 0 min preincubation, compared to the uninhibited control"}, "Rv3802": {"tested_on": "Rv3802", "settings": "THL to Rv3802, cited from earlier work"}, "Mtb Pks13-TE [6]": {"biological_target": "T2, Mtb Pks13-TE", "assay": "Pks13-TE reversible covalent inhibition and influence of trehalose", "assay_type": "biochemical"}, "Mtb strain H37Rv": {"tested_on": "Mtb strain H37Rv", "settings": "cited from earlier work"}, "[7]": {"tested_on": "OC[C@H]1O[C@H](O[C@H]2O[C@H](CO)[C@@H](O)[C@H](O)[C@H]2O)[C@H](O)[C@@H](O)[C@@H]1O", "assay": "purified protein, by the assay type", "settings": "other: Pks13-TE, acyl transfer from 4MH to trehalose; pH 7.5; 37.0 °C"}, "[8]": {"settings": "20 nM Rv3802, linear rates from 2 to 6 min, no preincubation"}, "[9]": {"settings": "read-out: increase in inhibition level of Pks13-TE from 0 to 3 h"}, "[10]": {"settings": "read-out: inhibition level of Pks13-TE at 4 h (decreased to)"}}, "note": "Read-outs that look alike come from different tables or passages of the source.", "data": [{"molecule": "CCCCCCCCCCCC(CC1OC(=O)C1CCCCCC)OC(=O)C(CC(C)C)NC=O", "note": "(single isomer, unassigned; ent1) [ent1-THL]", "values": [{"measurement": "inhibition level of Rv3802", "setting": "Mtb Rv3802 [1]; 100 µM", "value": "85.1 ± 1.4", "unit": "%"}, {"measurement": "EC50", "setting": "Mtb Rv3802 [2]; [8]", "value": "15.9 ± 1", "unit": "µM"}]}, {"molecule": "CCCCCCCCCCC[C@H](C[C@H]1OC(=O)[C@@H]1CCCCCC)OC(=O)[C@H](CC(C)C)NC=O", "note": "(single isomer, unassigned; ent2) [ent2-THL]", "values": [{"measurement": "inhibition level of Rv3802", "setting": "Mtb Rv3802 [1]", "value": "83.9 ± 0.6", "unit": "%"}, {"measurement": "Pks13-TE activity remaining", "setting": "Mtb Pks13-TE [3]; 100 μM inhibitor, 1 h preincubation, compared to uninhibited reactions", "value": "~ 30%"}, {"measurement": "EC50", "setting": "Mtb Rv3802 [2]; [8]", "value": "15.9 ± 1.1", "unit": "µM"}]}, {"molecule": "CCCCCCCCCCCC(CC1OC(=O)C1CCCCCC)OC(=O)C(CC(C)C)NC=O", "note": "(single isomer, unassigned; ent3) [ent3-THL]", "values": [{"measurement": "inhibition level of Rv3802", "setting": "Mtb Rv3802 [1]; 100 µM", "value": "83.0 ± 2.9", "unit": "%"}, {"measurement": "EC50", "setting": "Mtb Rv3802 [2]; [8]", "value": "16.6 ± 0.9", "unit": "µM"}]}, {"molecule": "CCCCCCCCCCCC(CC1OC(=O)C1CCCCCC)OC(=O)C(CC(C)C)NC=O", "note": "(single isomer, unassigned; ent4) [ent4-THL]", "values": [{"measurement": "inhibition level of Rv3802", "setting": "Mtb Rv3802 [1]; 100 µM", "value": "79.0 ± 1.7", "unit": "%"}, {"measurement": "EC50", "setting": "Mtb Rv3802 [2]; [8]", "value": "62.1 ± 4.1", "unit": "µM"}]}, {"molecule": "CCCCCCCCCCC[C@H](C[C@@H]1OC(=O)[C@H]1CCCCCC)OC(=O)[C@@H](CC(C)C)NC=O", "note": "[2′,5-epi-THL]", "values": [{"measurement": "inhibition level of Rv3802", "setting": "Mtb Rv3802 [1]", "value": "completely inhibit"}, {"measurement": "EC50", "setting": "Mtb Rv3802 [2]; [8]", "value": "0.0287 ± 0.0031", "unit": "µM"}]}, {"molecule": "CCCCCCCCCCC[C@@H](C[C@@H]1OC(=O)[C@H]1CCCCCC)OC(=O)[C@@H](CC(C)C)NC=O", "note": "[2′-epi-THL]", "values": [{"measurement": "inhibition level of Rv3802", "setting": "Mtb Rv3802 [1]", "value": "completely inhibit"}, {"measurement": "EC50", "setting": "Mtb Rv3802 [2]; [8]", "value": "0.0092 ± 0.0005", "unit": "µM"}, {"measurement": "fold lower binding affinity (KI) compared to THL", "setting": "Mtb Ag85C [4]; Ag85C", "value": "~ 4.5 fold"}, {"measurement": "fold lower kinact/KI value compared to THL", "setting": "Mtb Ag85C [4]; Ag85C", "value": "~ 4 fold"}, {"measurement": "kinact/KI", "setting": "Mtb Ag85C [4]; Ag85C, inhibitor 300 to 12.5 μM, 40 min progress curves", "value": "1.1 ± 0.3 × 10^−3 μM^−1 min^−1"}, {"measurement": "inhibition level of Ag85C", "setting": "Mtb Ag85C [5]", "value": "35.8 ± 2.2", "unit": "%"}]}, {"molecule": "CCCCCCCCCCC[C@H](C[C@@H]1OC(=O)[C@H]1CCCCCC)OC(=O)[C@H](CC(C)C)NC=O", "note": "[5-epi-THL]", "values": [{"measurement": "inhibition level of Rv3802", "setting": "Mtb Rv3802 [1]", "value": "completely inhibit"}, {"measurement": "EC50", "setting": "Mtb Rv3802 [2]; [8]", "value": "0.0126 ± 0.0012", "unit": "µM"}, {"measurement": "inhibition level of Ag85C", "setting": "Mtb Ag85C [5]", "value": "12.3 ± 2.6", "unit": "%"}]}, {"molecule": "CCCCCCCCCCC[C@@H](C[C@@H]1OC(=O)[C@H]1CCCCCC)OC(=O)[C@H](CC(C)C)NC=O", "note": "[THL, Tetrahydrolipstatin]", "values": [{"measurement": "IC50", "setting": "Rv3802", "value": "low micromolar"}, {"measurement": "Ki", "setting": "Rv3802; read-out: apparent KI", "value": 5, "unit": "nM"}, {"measurement": "retention of covalent coupling with THL, fold longer than Rv3802", "setting": "Mtb Pks13-TE [6]; Pks13-TE versus Rv3802", "value": "at least 10 fold"}, {"measurement": "slowing of the rate of inactivation of Pks13-TE by presence of trehalose", "setting": "Mtb Pks13-TE [6]; THL inhibition with versus without trehalose", "value": "48 ± 6.7", "unit": "%"}, {"measurement": "inhibition at 12.5 µM", "setting": "Mtb Pks13-TE [6]; [9]", "value": "62.3 ± 5", "unit": "%"}, {"measurement": "inhibition at 25 µM", "setting": "Mtb Pks13-TE [6]; [9]", "value": "61.8 ± 3.5", "unit": "%"}, {"measurement": "inhibition at 50 µM", "setting": "Mtb Pks13-TE [6]; [9]", "value": "44.1 ± 3.5", "unit": "%"}, {"measurement": "inhibition at 12.5 µM", "setting": "Mtb Pks13-TE [6]; [10]", "value": "15.2 ± 1.4", "unit": "%"}, {"measurement": "inhibition at 25 µM", "setting": "Mtb Pks13-TE [6]; [10]", "value": "11.6 ± 0.4", "unit": "%"}, {"measurement": "inhibition at 50 µM", "setting": "Mtb Pks13-TE [6]; [10]", "value": "16 ± 2.1", "unit": "%"}, {"measurement": "inhibition level of Rv3802", "setting": "Mtb Rv3802 [1]", "value": "completely inhibit"}, {"measurement": "minimum inhibitory concentration (MIC)", "setting": "Mtb strain H37Rv", "value": "~ 15 μM"}, {"measurement": "inhibition at 100 µM", "setting": "Mtb Pks13-TE [3]; read-out: inhibition level of Pks13-TE", "value": "50 to 60", "unit": "%"}, {"measurement": "EC50", "setting": "Mtb Rv3802 [2]", "value": "0.0162 ± 0.0008", "unit": "µM"}, {"measurement": "kinact/KI", "setting": "Mtb Ag85C [4]", "value": 70, "unit": "M⁻¹ s⁻¹"}, {"measurement": "inhibition at 100 µM", "setting": "Mtb Ag85C [5]; read-out: inhibition level of Ag85C", "value": "31.8 ± 5.9", "unit": "%"}]}, {"molecule": "Mtb Pks13-TE (Mycobacterium tuberculosis H37Rv)", "values": [{"measurement": "Km", "setting": "[7]", "value": "56.6 ± 7.9", "unit": "mM"}]}]}
